The source made the active and inactive calls. No rule for the calls is given here.
System: GENE-TOX genotoxicity assays, various organisms and cells
Assay: GENE-TOX mutagenicity studies
Conditions: for call: Assay Type: In vivo carcinogenicity studies
[1] = Species/Cell Type: Drosophila melanogaster, Assay Type: Sex-linked recessive lethal gene mutation, Assay Code: SRL+, Evaluation Type: Evaluation A (Pre-1980)
[2] = Species/Cell Type: Mammalian polychromatic erythrocytes, Assay Type: Micronucleus test, chromosome aberrations, Assay Code: MNT+, Evaluation Type: Evaluation A (Pre-1980)
[3] = Species/Cell Type: Saccharomyces cerevisiae, Assay Type: Mitotic recombination or gene conversion, Assay Code: YEC+, Evaluation Type: Evaluation A (Pre-1980)
[4] = Species/Cell Type: Rodents, Sex: Male, Assay Type: Dominant lethal test, Assay Code: DLT-, Evaluation Type: Evaluation A (Pre-1980)
[5] = Species/Cell Type: Mammalian polychromatic erythrocytes, Assay Type: Micronucleus test, chromosome aberrations, Assay Code: MNT-, Evaluation Type: Evaluation B (Post-1980)
[6] = Species/Cell Type: Salmonella typhimurium (one or more of the five standard strains: TA98, TA100, TA1535, TA1537, and TA1538), Assay Type: Histidine reverse gene mutation, Ames assay, Assay Code: SAL+*, Activation: With metabolic activation, Evaluation Type: Evaluation A (Pre-1980)
[7] = Species/Cell Type: Nonhuman, Assay Code: CCG+, Evaluation Type: Evaluation A (Pre-1980)

O=C1C=C(N2CC2)C(=O)C(N2CC2)=C1N1CC1
mutagenic call [1]: active; positive
mutagenic call (Species/Cell Type: Drosophila melanogaster, Sex: Male, Assay Type: Heritable translocation test, chromosome aberrations, Assay Code: DHT+, Evaluation Type: Evaluation A (Pre-1980)): active; positive
mutagenic call (Species/Cell Type: Glycine max (soybean), Assay Type: Gene mutation, Assay Code: GLM+, Evaluation Type: Evaluation A (Pre-1980)): active; positive
mutagenic call (Species/Cell Type: Hordeum vulgare (barley), Assay Type: Chromosome aberrations, Assay Code: HOC+D, Dose Response: With dose response, Evaluation Type: Evaluation A (Pre-1980)): active; positive
mutagenic call (Species/Cell Type: Human lymphocytes or leukocytes, Assay Type: Chromosome aberrations in vitro, Assay Code: CY7T, Evaluation Type: Evaluation A (Pre-1980)): no conclusion
mutagenic call (Species/Cell Type: Human lymphocytes, Assay Type: Sister-chromatid exchange (SCE) in vitro, Assay Code: SCL+D, Dose Response: With dose response, Evaluation Type: Evaluation A (Pre-1980)): active; positive
mutagenic call (Species/Cell Type: Human, Assay Type: Sister-chromatid exchange (SCE) in vitro, Assay Code: SC1+D, Dose Response: With dose response, Evaluation Type: Evaluation A (Pre-1980)): active; positive
mutagenic call (Species/Cell Type: Mammalian germ cells, Sex: Male, Assay Type: Chromosome aberrations in vivo, Assay Code: CY9T, Evaluation Type: Evaluation A (Pre-1980)): no conclusion
mutagenic call (Species/Cell Type: Mammalian oocytes or early embryo, Assay Type: Chromosome aberrations in vivo, Assay Code: CYO+, Evaluation Type: Evaluation A (Pre-1980)): active; positive
mutagenic call [2]: active; positive
mutagenic call (Species/Cell Type: Neurospora crassa, Assay Type: Forward gene mutation, Assay Code: NEF+, Evaluation Type: Evaluation A (Pre-1980)): active; positive
call (Species/Cell Type: Nonhuman, Assay Code: CCG+L, Evaluation Type: Evaluation A (Pre-1980)): active; positive
mutagenic call (Species/Cell Type: Nonhuman, Assay Type: Sister-chromatid exchange (SCE) in vitro, Assay Code: SC2+D, Dose Response: With dose response, Evaluation Type: Evaluation A (Pre-1980)): active; positive
mutagenic call (Species/Cell Type: Nonhuman, Assay Type: Sister-chromatid exchange (SCE) in vivo, Assay Code: SC3+D, Dose Response: With dose response, Evaluation Type: Evaluation A (Pre-1980)): active; positive
mutagenic call (Species/Cell Type: Rodents, Sex: Female, Assay Type: Dominant lethal test, Assay Code: DLTF+D, Dose Response: With dose response, Evaluation Type: Evaluation A (Pre-1980)): active; positive
mutagenic call (Species/Cell Type: Rodents, Sex: Male, Assay Type: Dominant lethal test, Assay Code: DLT+D, Dose Response: With dose response, Evaluation Type: Evaluation A (Pre-1980)): active; positive
mutagenic call [3]: active; positive
mutagenic call (Species/Cell Type: Saccharomyces cerevisiae, Assay Type: Reverse gene mutation, Assay Code: YER+, Evaluation Type: Evaluation A (Pre-1980)): active; positive
mutagenic call (Species/Cell Type: Salmonella typhimurium, Escherichia coli, Serratia marcesens, Assay Type: Forward and reverse gene mutation, host-mediated assay, Assay Code: HMN+, Evaluation Type: Evaluation A (Pre-1980)): active; positive

CN(C)CC/C=C1\c2ccccc2CSc2ccccc21
mutagenic call [4]: inactive; negative

CCCCCC(=O)N(C)N=O
mutagenic call [3]: active; positive

O=C(COc1ccc(Br)cc1CN1CCCCC1)N/N=C\c1ccccc1
mutagenic call (Species/Cell Type: Saccharomyces cerevisiae, Assay Type: Reverse gene mutation, Assay Code: YERT, Evaluation Type: Evaluation A (Pre-1980)): no conclusion

CC(=O)OC[C@H]1OC(OC(C)=O)[C@H](NC(=O)N(C)N=O)[C@@H](OC(C)=O)[C@@H]1OC(C)=O (stereo not given in full)
mutagenic call (Species/Cell Type: Chinese hamster lung (V79) cells, Assay Type: Forward gene mutation at the HPRT or ouabain locus, Assay Code: V79+, Evaluation Type: Evaluation A (Pre-1980)): active; positive

NS(=O)(=O)c1cc2c(cc1Cl)NC=NS2(=O)=O
mutagenic call (Species/Cell Type: Salmonella typhimurium (one or more of the five standard strains: TA98, TA100, TA1535, TA1537, and TA1538), Assay Type: Histidine reverse gene mutation, Ames assay, Assay Code: SALT, Evaluation Type: Evaluation A (Pre-1980)): no conclusion

NC(Cc1c[nH]c2ccccc12)C(=O)O (stereo not given)
mutagenic call (Species/Cell Type: Human, Sex: Male, Assay Type: Sperm morphology, Assay Code: SPH-, Evaluation Type: Evaluation A (Pre-1980)): inactive; negative

ClN1CCCCC1
mutagenic call [5]: inactive; negative

CC(N)=S=O
mutagenic call (Species/Cell Type: Mammalian polychromatic erythrocytes, Assay Type: Micronucleus test, chromosome aberrations, Assay Code: MNT+U, Dose Response: Unconfirmed positive response, Evaluation Type: Evaluation B (Post-1980)): active; positive

CN(C)N=Nc1ccc(Cl)cc1
mutagenic call [1]: active; positive
mutagenic call [2]: active; positive
mutagenic call [3]: active; positive

Cc1cccc2ccc3cc4ccccc4cc3c12
mutagenic call (Species/Cell Type: Nonhuman, Assay Type: Sister-chromatid exchange (SCE) in vitro, Assay Code: SC2+, Evaluation Type: Evaluation B (Post-1980)): active; positive
mutagenic call [6]: active; positive

Nc1c(O)c(S(=O)(=O)O)cc2cc(S(=O)(=O)O)ccc12
mutagenic call [4]: inactive; negative

Cc1ccc2c(c1N)C(=O)c1ccccc1C2=O
call [7]: active; positive

O=Nn1c2ccccc2c2ccccc21
mutagenic call (Species/Cell Type: Rat primary hepatocytes, Assay Type: Unscheduled DNA synthesis (UDS) in vitro, DNA effects, Assay Code: UDP-, Evaluation Type: Evaluation A (Pre-1980)): inactive; negative

Cc1nc(N)cc2[nH]c3ccccc3c12
mutagenic call (Species/Cell Type: Chinese hamster ovary (CHO) cells, Assay Type: Forward gene mutation at the HPRT locus, Assay Code: CHO+*, Activation: With metabolic activation, Evaluation Type: Evaluation B (Post-1980)): active; positive
mutagenic call (Species/Cell Type: Human lymphocytes, Assay Type: Sister-chromatid exchange (SCE) in vitro, Assay Code: SCL+D, Dose Response: With dose response, Evaluation Type: Evaluation B (Post-1980)): active; positive
mutagenic call (Species/Cell Type: Human, Assay Type: Sister-chromatid exchange (SCE) in vitro, Assay Code: SC1+D, Dose Response: With dose response, Evaluation Type: Evaluation B (Post-1980)): active; positive
call [7]: active; positive
mutagenic call (Species/Cell Type: Nonhuman, Assay Type: Sister-chromatid exchange (SCE) in vitro, Assay Code: SC2+D*, Activation: With metabolic activation, Dose Response: With dose response, Evaluation Type: Evaluation B (Post-1980)): active; positive
mutagenic call (Species/Cell Type: Nonhuman, Assay Type: Sister-chromatid exchange (SCE) in vivo, Assay Code: SC3+D, Dose Response: With dose response, Evaluation Type: Evaluation B (Post-1980)): active; positive
mutagenic call [6]: active; positive

Cc1cc(C)cc(OC(=O)N(C)N=O)c1
mutagenic call (Species/Cell Type: Bacillus subtilis (H17 vs M45T), Assay Type: Rec-assay, spot test, DNA effects (bacterial DNA repair), Assay Code: REX+, Evaluation Type: Evaluation A (Pre-1980)): active; positive
mutagenic call (Species/Cell Type: Escherichia coli WP2, Assay Type: Tryptophan reverse gene mutation, Assay Code: WP2+, Evaluation Type: Evaluation A (Pre-1980)): active; positive

N#Cc1ccc2ccccc2c1
mutagenic call (Species/Cell Type: Allium cepa, Assay Type: Chromosome aberrations, Assay Code: ALC+D, Dose Response: With dose response, Evaluation Type: Evaluation A (Pre-1980)): active; positive

Cc1c2occc2cc2c1oc(=O)c1cnccc12
mutagenic call (Species/Cell Type: Human, Assay Type: Sister-chromatid exchange (SCE) in vitro, Assay Code: SC1+, Evaluation Type: Evaluation B (Post-1980)): active; positive

Cc1nc2ccc([N+](=O)[O-])cc2[nH]1
mutagenic call (Species/Cell Type: Salmonella typhimurium (one or more of the five standard strains: TA98, TA100, TA1535, TA1537, and TA1538), Assay Type: Histidine reverse gene mutation, Ames assay, Assay Code: SAL+, Evaluation Type: Evaluation A (Pre-1980)): active; positive

Nc1ccc(Cc2ccc(N)cc2)cc1
call [7]: active; positive
mutagenic call (Species/Cell Type: Nonhuman, Assay Type: Sister-chromatid exchange (SCE) in vivo, Assay Code: SC3+, Evaluation Type: Evaluation B (Post-1980)): active; positive

COCCOC(C)=O
mutagenic call [5]: inactive; negative
